Assay results: paper PMC9147024 (2022)

Legend:
Assay in all cases: SPR
[1] = tested on: AATGAAT (DNA, hairpin) CCAATGAATGCTCTCATTCATTGG; details: Na+ 100 mM; 50 mM Tris-HCl, 1 mM EDTA, pH 7.4, 25 °C
[2] = tested on: AAAGTTT (DNA, hairpin) CCAAAGTTTGCTCTCAAACTTTGG; details: Na+ 100 mM, 50 mM Tris-HCl, 1 mM EDTA, pH 7.4, 25 °C
[3] = tested on: AAAGCTTT (DNA, hairpin) CCAAAGCTTTGCTCTCAAAGCTTTGG; details: Na+ 100 mM; 50 mM Tris-HCl, 1 mM EDTA, pH 7.4, 25 °C
[4] = tested on: AAATTT (DNA, hairpin) CCAAATTTGCTCTCAAATTTGG; details: Na+ 100 mM, 50 mM Tris-HCl, 1 mM EDTA, pH 7.4, 25 °C
[5] = tested on: ATAGCTAT (DNA, hairpin) CCATAGCTATGCTCTCATAGCTATGG; details: Na+ 100 mM; 50 mM Tris-HCl, 1 mM EDTA, pH 7.4, 25 °C
[6] = tested on: AAAGAAA (DNA, hairpin) CCAAAGAAAGCTCTCTTTCTTTGG; details: Na+ 100 mM, 50 mM Tris-HCl, 1 mM EDTA, pH 7.4, 25 °C
[7] = tested on: ATAGTAT (DNA, hairpin) CCATAGTATGCTCTCATACTATGG; details: Na+ 100 mM; 50 mM Tris-HCl, 1 mM EDTA, pH 7.4, 25 °C
[8] = tested on: ATATAT (DNA, hairpin) CCATATATGCTCTCATATATGG; details: Na+ 100 mM, 50 mM Tris-HCl, 1 mM EDTA, pH 7.4, 25 °C
[9] = tested on: AATAAT (DNA, hairpin) CCAATAATGCTCTCATTATTGG; details: Na+ 100 mM, 50 mM Tris-HCl, 1 mM EDTA, pH 7.4, 25 °C
[10] = tested on: AAAAAA (DNA, hairpin) CCAAAAAAGCTCTCTTTTTTGG; details: Na+ 100 mM, 50 mM Tris-HCl, 1 mM EDTA, pH 7.4, 25 °C
[11] = tested on: AATGCAAT (DNA, hairpin) CCAATGCAATGCTCTCATTGCATTGG; details: Na+ 100 mM; 50 mM Tris-HCl, 1 mM EDTA, pH 7.4, 25 °C
[12] = tested on: AAAGCAAA (DNA, hairpin) CCAAAGCAAAGCTCTCTTTGCTTTGG; details: Na+ 100 mM, 50 mM Tris-HCl, 1 mM EDTA, pH 7.4, 25 °C

| SMILES | KD [1] [µM] | KD [2] [µM] | KD [3] [µM] | binding ([4]; NB [sic]) | KD [5] [µM] | KD [6] [µM] | KD [7] [µM] | KD [8] [µM] | KD [4] [µM] | KD ([9]; Figure S2 prints 344 nM) [µM] | KD [10] [µM] | binding ([6]; NB [sic]) | KD [11] [µM] | KD [9] [µM] | KD [12] [µM] | binding ([8]; NB [sic]) | binding ([9]; NB [sic]) | binding ([10]; NB [sic]) | binding ([12]; NB [sic]) | KD ([2]; text b19 gives 1.8 nM) [µM] |
| --- | --- | --- | --- | --- | --- | --- | --- | --- | --- | --- | --- | --- | --- | --- | --- | --- | --- | --- | --- | --- |
| c1cc(COc2ccc(C3=NCCN3)cc2)nc(COc2ccc(C3=NCCN3)cc2)c1 | 0.101 | 0.0036 | 0.123 | no | 1 | 0.043 | 0.227 | – | – | – | – | – | – | – | – | – | – | – | – | – |
| c1cc(COc2ccc(C3=NCCCN3)cc2)nc(COc2ccc(C3=NCCCN3)cc2)c1 | 0.0057 | 0.001 | 0.027 | – | 0.256 | 0.0046 | 0.0336 | 0.709 | 0.138 | – | 1.111 | – | 0.534 | 0.141 | 0.653 | – | – | – | – | – |

Other lines, results leading:

| KD [1] [µM] | KD [2] [µM] | KD [3] [µM] | binding ([4]; NB [sic]) | KD [5] [µM] | KD [6] [µM] | KD [7] [µM] | KD [8] [µM] | KD [4] [µM] | KD ([9]; Figure S2 prints 344 nM) [µM] | KD [10] [µM] | binding ([6]; NB [sic]) | KD [11] [µM] | KD [9] [µM] | KD [12] [µM] | binding ([8]; NB [sic]) | binding ([9]; NB [sic]) | binding ([10]; NB [sic]) | binding ([12]; NB [sic]) | KD ([2]; text b19 gives 1.8 nM) [µM] | SMILES |
| --- | --- | --- | --- | --- | --- | --- | --- | --- | --- | --- | --- | --- | --- | --- | --- | --- | --- | --- | --- | --- |
| 0.689 | 0.052 | 1.025 | – | – | – | – | – | – | – | – | – | – | – | – | – | – | – | – | – | N=C(N)c1ccc(OCc2cccc(COc3ccc(C(N)=O)cc3)n2)cc1 |
| – | 0.9 | – | – | – | – | – | 0.344 | 0.084 | 0.117 | 0.261 | no | – | – | – | – | – | – | – | – | N=C(N)c1ccc(OCc2cccc(COc3ccc(C(=N)N)cc3)c2)cc1 |
| 0.024 | – | 0.058 | – | 0.719 | 0.019 | 0.068 | – | 0.374 | – | – | – | 1.176 | – | – | no | no | no | no | 0.0014 | N=C(N)c1ccc(OCc2cccc(COc3ccc(C(=N)N)cc3)n2)cc1 |
